Patent US5114920A, “BU-3292T antibiotics” (priority 1988, dated 1992)
Values after ≈ are worked out from the molar mass of the structure shown. Starred links: 1 amine or outer side, 2 acyl side, 3 side chain; linkers in the order of their positions; H or OH if unused. Positions of bridges follow the written chain, without caps; N, C: chain ends. Non-standard residues stand in square brackets, D forms with d. Residues, ends and D or L forms follow the SMILES beside them. Chains are numbered I, II in the order given. Actinocin(9to1) = Cc1c2oc3c(C)ccc(C(=O)[*:1])c3nc-2c(C(=O)[*:2])c(N)c1=O; X2 = CC1CCC(C(=O)[*:2])N1[*:1]; NMeV = CN[CH](C(=O)O)C(C)C; Sar = CNCC(=O)O

Key:
[1] = test system: Aspergillus fumigatus IAM 2530; experiment: Antimicrobial activity, serial two-fold agar dilution method; type: cell-based; conditions: Sabouraud dextrose agar
Experimental: (§1) The antimicrobial activity of BU-3292T A and B was determined against aerobic and anaerobic bacteria and fungi by a serial two-fold agar dilution method. BU-3292T A and B are active against aerobic gram-positive bacteria, and weakly active against anaerobic gram-negative bacteria and fungi.

[2] = test system: Bacillus subtilis PCI-219; experiment: as above; type: cell-based; conditions: Nutrient agar
Experimental: as §1

[3] = test system: Bacteroides fragilis A22693; experiment: as above; type: cell-based; conditions: GAM agar
Experimental: as §1

[4] = test system: Candida albicans IAM 4888; experiment: as above; type: cell-based; conditions: Sabouraud dextrose agar
Experimental: as §1

[5] = test system: Clostridium difficile A21675; experiment: as above; type: cell-based; conditions: GAM agar
Experimental: as §1

[6] = test system: Cryptococcus neoformans IAM 4519; experiment: as above; type: cell-based; conditions: Sabouraud dextrose agar
Experimental: as §1

Escherichia coli NIHJ = experiment: as above; type: cell-based; conditions: Nutrient agar
Experimental: as §1

[7] = test system: Fusarium moniliforme A2284; experiment: as above; type: cell-based; conditions: Sabouraud dextrose agar
Experimental: as §1

[8] = test system: Klebsiella pneumoniae D11; experiment: as above; type: cell-based; conditions: Nutrient agar
Experimental: as §1

Micrococcus luteus 1001 = experiment: as above; type: cell-based; conditions: Nutrient agar
Experimental: as §1

Mucor spinosus IFO 5317 = experiment: as above; type: cell-based
Experimental: as §1

[9] = test system: Propionibacterium acnes A21933; experiment: as above; type: cell-based; conditions: GAM agar
Experimental: as §1

[10] = test system: Propionibacterium anaerobius A21905; experiment: as above; type: cell-based; conditions: GAM agar
Experimental: as §1

Proteus mirabilis A9554 = experiment: as above; type: cell-based; conditions: Nutrient agar
Experimental: as §1

Proteus vulgalis A9436 = experiment: as above; type: cell-based; conditions: Nutrient agar
Experimental: as §1

[11] = test system: Pseudomonas aeruginosa A9930; experiment: as above; type: cell-based; conditions: Nutrient agar
Experimental: as §1

[12] = test system: Staphylococcus aureus 209P; experiment: as above; type: cell-based; conditions: Nutrient agar
Experimental: as §1

[13] = test system: Staphylococcus aureus smith; experiment: as above; type: cell-based; conditions: Nutrient agar
Experimental: as §1

[14] = test system: Staphylococcus epidermidis D153; experiment: as above; type: cell-based; conditions: Nutrient agar
Experimental: as §1

[15] = test system: Streptococcus faecalis A9612; experiment: as above; type: cell-based; conditions: Nutrient agar
Experimental: as §1

[16] = test system: Streptococcus pyogenes A20201; experiment: as above; type: cell-based; conditions: Nutrient agar
Experimental: as §1

[17] = test system: Trichophyton mentagrophytes D155; experiment: as above; type: cell-based; conditions: Sabouraud dextrose agar
Experimental: as §1

[18] = test system: Clostridium perfringens A9635; type: cell-based; conditions: GAM agar
[19] = test system: B16-F10 (murine melanoma) cells; experiment: In vitro cytotoxicity, neutral red staining; type: cell-based
Experimental: (§2) BU-3292T components A and B were tested for in vitro cytotoxicity against murine and human tumor cells and for in vivo antitumor activity in mice. Actinomycin D was used as a reference compound in both in vitro and in vivo experiments. B16-F10 (murine melanoma) and Moser (human colorectal carcinoma) cells were grown to the logarithmic phase in enriched Eagle minimum essential medium (MEM) supplemented with fetal calf serum (FCS, 10%) and kanamycin (60 mcg/ml), harvested and inoculated into wells of a 96-well microtiter plate with test materials at the concentrations of 3.0×10^4 and 6.0×10^4 cells/ml, respectively. They were incubated at 37° C. in humidified atmosphere of 5% CO2 and 95% air for 72 hours. The cytotoxic activity was determined colorimetrically at 540 nm after staining viable cells with neutral red. […] Inhibitory effects of BU-3292T component A on macromolecule (DNA, RNA and protein) synthesis were determined in vitro. Cultured L1210 murine leukemia cells (5×10^5 cells/ml) were incubated with test materials at 37° C. for 15 minutes and then further incubated for 60 minutes after the addition of labelled precursor, ^3 H-thymidine, ^14 C-uridine or ^3 H-leucine, into the cultured mixtures. After washing with chilled 5% trichloroacetic acid solution, the radioactivity incorporated into the acid-insoluble fraction of the tumor cells was determined in a liquid scintillation counter. […] In vivo antitumor activities of BU-3292T components A and B were tested in tumor-bearing female CDF mice. After the intraperitoneal implantation of diluted ascitic fluid with 1.0 ×10^6 lymphocytic leukemia P388 cells into the mice, test compounds were administered intraperitoneally once a day on days 1, 2 and 3 (QD×3).

[20] = test system: Moser (human colorectal carcinoma) cells; experiment: In vitro cytotoxicity, neutral red staining; type: cell-based; conditions: 72 hours
Experimental: as §2

[21] = test system: lymphocytic leukemia P388; experiment: Antitumor activity against P388 leukemia (ip); type: in vivo, mice; conditions: for MST (Median survival time) / T/C: QD × 3, ip
Experimental: as §2

[22] = Body weight change in P388-bearing mice; conditions: QD × 3, ip
Experimental: as §2

Solubility = type: physicochemical
Source text: BU-3292T A is isolated as a white amorphous powder, while BU-3292T B is an orange-red powder. […] The compounds give positive responses to iodine and Rydone-Smith reagents, but negative responses to Sakaguchi, ferric chloride, ninhydrin and anthrone reagents. […] The IR spectra of BU-3292T A and B are illustrated in FIGS. 1 and 2, respectively.

[23] = test system: aerobic gram-positive bacteria; experiment: Antimicrobial activity, agar dilution, summary in words; type: cell-based; conditions: summary of Table 6
Experimental: as §1

[24] = test system: anaerobic gram-negative bacteria and fungi; experiment: as above; type: cell-based; conditions: summary of Table 6
Experimental: as §1

gram-negative bacteria = experiment: as above; type: cell-based; conditions: summary of Table 6
Experimental: as §1

## Cc1c2oc3c(C)ccc(C(=O)NC4C(=O)NC(C(C)C)C(=O)N5C(C)CCC5C(=O)N(C)CC(=O)N(C)C(C(C)C)C(=O)OC4C)c3nc-2c(C(=O)NC2C(=O)NC(C(C)C)C(=O)N3C(C)CCC3C(=O)N(C)CC(=O)N(C)C(C(C)C)C(=O)OC2C)c(N)c1=O (centres unmarked) [BU-3292T B] (I: TV[X2][Sar][NMeV] / II: TV[X2][Sar][NMeV]; ester I:1-I:C, II:1-II:C; linker I:N-II:N via Actinocin(9to1); configuration not given here)
[1]
  MIC: > 100 µg/mL
[2]
  MIC: 0.8 µg/mL (≈ 0.623 µM)
[3]
  MIC: > 100 µg/mL
[4]
  MIC: > 100 µg/mL
[5]
  MIC: > 100 µg/mL
[6]
  MIC: > 100 µg/mL
Escherichia coli NIHJ
  MIC: > 100 µg/mL
[7]
  MIC: 50 µg/mL (≈ 39 µM)
[8]
  MIC: 100 µg/mL (≈ 77.9 µM)
Micrococcus luteus 1001
  MIC: 0.4 µg/mL (≈ 0.312 µM)
Mucor spinosus IFO 5317; Mucor spinosus IFO 5317, Sabouraud dextrose agar
  MIC: 25 µg/mL (≈ 19.5 µM)
Mucor spinosus IFO 5317; in vitro against Mucor spinosus IF05317
  MIC: 25 µg/mL (≈ 19.5 µM)
[9]
  MIC: 12.5 µg/mL (≈ 9.74 µM)
[10]
  MIC: 6.3 µg/mL (≈ 4.91 µM)
Proteus mirabilis A9554
  MIC: > 100 µg/mL
Proteus vulgalis A9436
  MIC: > 100 µg/mL
[11]
  MIC: > 100 µg/mL
[12]
  MIC: 1.6 µg/mL (≈ 1.25 µM)
[13]
  MIC: 1.6 µg/mL (≈ 1.25 µM)
[14]
  MIC: 1.6 µg/mL (≈ 1.25 µM)
[15]
  MIC: 0.8 µg/mL (≈ 0.623 µM)
[16]
  MIC: 0.8 µg/mL (≈ 0.623 µM)
[17]
  MIC: > 100 µg/mL
[18]
  MIC: 25 µg/mL (≈ 19.5 µM)
[19]; B16-F10, 72 hours
  IC50: < 0.00016 µg/mL
[19]; cytotoxic activity, B16-F10 versus Moser
  times stronger against B16-F10 cells than against Moser cells: ~400 times
[20]
  IC50: 0.06 µg/mL (≈ 0.0467 µM)
[21]; 0.003 mg/kg/day
  MST (Median survival time): 11.0 days
  T/C: 110%
[21]; 0.01 mg/kg/day
  MST (Median survival time): 12.0 days
  T/C: 120%
[21]; 0.03 mg/kg/day
  MST (Median survival time): 14.0 days
  T/C: 140%
[21]; 0.1 mg/kg/day
  MST (Median survival time): 16.0 days
  T/C: 160%
[21]; 0.3 mg/kg/day
  MST (Median survival time): 8.0 days
  T/C: 80%
[21]; 1 mg/kg/day
  MST (Median survival time): Tox
  T/C: Tox
[21]; anti-P388 leukemic activity, QD×3, ip
  maximum T/C value: 160%
[22]; 0.003 mg/kg/day
  Body weight change on day 4: +1.0 g
[22]; 0.01 mg/kg/day
  Body weight change on day 4: +1.0 g
[22]; 0.03 mg/kg/day
  Body weight change on day 4: +1.0 g
[22]; 0.1 mg/kg/day
  Body weight change on day 4: -1.0 g
[22]; 0.3 mg/kg/day
  Body weight change on day 4: -3.3 g
Solubility; dimethyl sulfoxide, dimethylformamide, methanol, ethyl acetate, chloroform
  solubility in dimethyl sulfoxide, dimethylformamide, methanol, ethyl acetate and chloroform: readily soluble
Solubility; water and other organic solvents
  solubility in water and other organic solvents: insoluble
[23]
  activity against aerobic gram-positive bacteria: active
[24]
  activity against anaerobic gram-negative bacteria and fungi: weakly active
gram-negative bacteria
  activity against gram-negative bacteria: inactive
